According to patent US20070173538A1 (Alcon, Inc., priority 2005, published 2007):

How the values were obtained:
FGFR = assay: Cell-free enzymatic kinase inhibition assay, FGFR; type: biochemical; settings: 1 mM ATP
[1] = Dissolution of compound in molten PEG; type: physicochemical; settings: PEG 3350 and PEG 8000 melted at about 60° C. to 95° C.
Excerpt: The present inventors have discovered that certain active agents have a higher solubility in the presence of PEG than in water. […] This pellet forms a colloidal like suspension when the pellet dissolves in water. Furthermore, using blends of high and low molecular weight PEGs can make erodible gel with the compound uniformly dispersed in it (see examples). This provides an injection dosage form for delivery of insoluble compounds via posterior juxtascleral or intravitreal administration, which enhances the solubility of the compounds and achieves the desired bioavailability. In the formulations of the present invention, the compound forms a solid solution in the matrix of the PEG.

Q: For `Cc1ccc(F)c(NC(=O)Nc2ccc(-c3cccc4[nH]nc(N)c34)cc2)c1` [RTK Inhibitor, N-[4-(3-amino-1H-indazol-4-yl)phenyl]-N′-(2-fluoro-5-methylphenyl)urea], which IC50 (FGFR) is on record?
A: Its IC50 is greater than 12.5 µM.

Q: What about the “Solubility in PEG” value [1] of the same compound?
A: The value was “dissolve completely”.
